How the values were obtained:
[1] = test system: SNL model in rats; assay: Antiallodynic activity on Chung model (SNL, spinal nerve ligation), von Frey; type: in vivo, Sprague-Dawley rats; conditions: Rattus norvegicus, po, 1 h
Experimental: Male Sprague-Dawley rats (200-220 g, Orient Bio, Korea) were habituated for 1 week before the experiment and allowed free access to food and water throughout the experimentation. Room temperature and humidity were maintained at 24±2° C. and 50±10%, respectively. Neuropathic surgery (SNL, Spinal nerve ligation) model was done as described in Kim and Chung (1992). Briefly, animal under gaseous anesthesia with isoflurane a 4:4 flow ratio of NO2. The left lumber spinal nerve L5 and L6 were isolated and tightly ligated with 4˜0 silk thread. The wound was treated with a gentamicin antibiotics solution (4 mg/kg, 4 ul/g, bw), and the wound muscle was closed with cat cut chrome 4/0 thread and skin was closed dafilon 4/0 tread. Sham controls were prepared in the same manner as the spinal nerves were exposed, but no ligated L5 and L6 nerves. But, vehicle controls were identical to SNL model, except for administration of vehicles.
(§1) Tactile sensitivity (Mechanical allodynia) was evaluated using von Frey monofilaments before and after treatment and animals were used withdrawal threshold value was less than 4 g. […] The tactile sensitivity for ipsilateral hind paw was measured using the up-and-down method (Dixon, 1980) with seven von Frey monofilaments (0.4, 1, 2, 4, 6, 8, and 15 g) to 3 trials. […] The 50% paw withdrawal threshold for each paw was calculated using the following formula: [Xth] log=[vFr] log+ky where [vFr] is the force of the last von Frey used, k=0.2249 which is the average interval (in log units) between the von Frey monofilaments, and y is a value that depends upon the pattern of withdrawal responses (Dixon, 1980).
All animals were fasted 18 h before the administration of the compounds. Antiallodynic effect of compounds of Examples 1, 63 and 65 were evaluated at the dose of 5, 10 and 30 mg/kg (n=5˜6), orally administrated in a volume of 5 ul/g, bw in a vehicle of 30% (v/v) PEG 400 (Examples 1 and 63) or 20% (v/v) Tween 80 (Example 65). […]

[2] = test system: vincristine-induced pain model in rats; assay: Antiallodynic activity on vincristine-induced pain model, von Frey; type: in vivo, Sprague-Dawley rats; conditions: 0.5 hr, paw withdrawal threshold relative to sham
Experimental: Male, Sprague-Dawley rats (300-320 g, Nara Bio, Korea) were habituated for 1 week before surgery and allowed free access to food and water throughout the experimentation. Room temperature and humidity were maintained at 24±2° C. and 50±10%, respectively.
Vincristine was established by the procedure of Natsuko et al. (2001) with minor modifications. Vincristine was intravenously infused continuously for 14 days using a mini-osmotic pump as follows. Vincristine sulfate solution (Hospira, Australia) was diluted with 0.9% saline to 30 ug/kg, final dose. The pumps (Alzet Model 2002, USA) were filled with the vincristine solution and primed by incubation at 37° C. for 4 h before the infusion. Briefly, animal under gaseous anesthesia with isoflurane a 4:4 flow ratio of NO2. […]
as §1, with “treatment,” for “treatment”
Antiallodynic effect of compound of Example 1 was evaluated at the dose of 1, 5 and 10 mg/kg (n=6), intraperitoneally administrated in a volume of 5 ul/g, bw in a vehicle of 30% (v/v) PEG. […]
The relative values compared to the sham (% control) were calculated and shown in Table 6 and FIG. 6, which show an antiallodynic effect of Compound 1 on vincristine-induced pain model in rats.

C[C@H](OC(N)=O)[C@@H](O)c1ccccc1Cl [Example 1, 1-(2-chlorophenyl)-(S)-1-hydroxypropyl-(S)-2-carbamate]
ED50 [1]: 11.1 mg/kg | % Control (vincristine-induced pain model) ([2]; dose 1 mg/kg intraperitoneally): 20.7% | % Control (vincristine-induced pain model) ([2]; dose 5 mg/kg intraperitoneally): 63.1% | % Control (vincristine-induced pain model) ([2]; dose 10 mg/kg intraperitoneally): 71.7%
